{"source": "paper PMC6299835", "about": "(Toxicon : official journal of the International Society on …, 2018)", "key": {"human MrgprX1 (hMrgprX1)": {"target": "human MrgprX1 (hMrgprX1) (Homo sapiens, UniProt Q96LB2)", "sequence (Q96LB2 whole entry, looked up)": "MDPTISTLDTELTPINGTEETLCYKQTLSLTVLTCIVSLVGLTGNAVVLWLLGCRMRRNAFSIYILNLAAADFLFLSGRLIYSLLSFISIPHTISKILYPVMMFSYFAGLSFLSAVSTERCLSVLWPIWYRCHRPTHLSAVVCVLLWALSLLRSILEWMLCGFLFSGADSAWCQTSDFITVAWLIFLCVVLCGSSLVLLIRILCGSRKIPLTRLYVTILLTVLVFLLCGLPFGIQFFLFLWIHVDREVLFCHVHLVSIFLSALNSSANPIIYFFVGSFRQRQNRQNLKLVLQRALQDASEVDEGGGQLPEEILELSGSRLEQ", "assay": "cell-based", "type": "cell-based"}, "mice": {"system": "mice", "details": "mouse, in vivo; cited from earlier work"}, "[1]": {"system": "hMrgprX1;Mrgpr-cluster∆−/− transgenic mouse", "details": "in vivo"}, "MrgprC11": {"target": "T1, MrgprC11 (Mus musculus, UniProt Q8CIP3)", "T1 sequence (Q8CIP3 1-322)": "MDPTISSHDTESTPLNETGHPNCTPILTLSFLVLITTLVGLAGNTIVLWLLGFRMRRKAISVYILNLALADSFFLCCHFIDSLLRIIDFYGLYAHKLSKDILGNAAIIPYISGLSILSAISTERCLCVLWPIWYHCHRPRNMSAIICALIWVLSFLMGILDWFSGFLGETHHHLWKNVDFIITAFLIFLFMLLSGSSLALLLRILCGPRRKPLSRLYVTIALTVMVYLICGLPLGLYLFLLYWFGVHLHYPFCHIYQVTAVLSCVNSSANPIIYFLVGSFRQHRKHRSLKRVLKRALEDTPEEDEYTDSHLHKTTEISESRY", "type": "cell-based"}}, "note": "Entries after “also recorded” stand apart in the source; their conditions may differ. No end group written: not given here."}
{"substance": "HSGFLLAWSGPRNRFVRF-NH2 [CNF-Vc1]", "values": [{"measurement": "Activation of hMrgprX1", "setting": "human MrgprX1 (hMrgprX1)", "value": "activates"}, {"measurement": "EC50", "setting": "human MrgprX1 (hMrgprX1)", "value": 1800, "unit": "nM"}, {"measurement": "Behaviour of mice after intracranial injection", "setting": "mice", "value": "renders mice unable to move; also recorded: hypoactive behavior"}, {"measurement": "Itch-related scratching after intradermal cheek injection of peptide", "setting": "[1]", "value": "induces significant scratching"}, {"measurement": "Activation of MrgprC11", "setting": "MrgprC11", "value": "activates"}]}
